# In patent US9642859B2, “Use of capsazepine and analogs thereof to treat cancer” (THE BOARD OF REGENTS OF THE UNIVERSITY OF TEXAS SYSTEM, priority 2012, dated 2017):
# How the values were obtained:
# [1] = tested on: Cal27; assay: Additional cell proliferation assay, Cal27; format: cell-based, human; settings: Cal27, 24 hour treatment
# Source text: Observed reductions in cell proliferation in these additional in vitro studies are as follows: SCC4, 40%; HSC3, 50%; SCC25, 80%; Cal27, 15%; MDA231, 56%; and LnCap, 37%.
# [2] = tested on: OSCC cell lines (HSC3, SCC4, and SCC25); assay: Calcium imaging of OSCC cell lines; format: cell-based, human; settings: capsazepine 30 μM (cytotoxic dose)
# Experimental: FIGS. 1J-1 to 1J-2. FIGS. 1J-1(a) to (c): […] FIGS. 1J-2(a) to (c): […] Arrow indicates time point when treatment was added. […] This was due to the toxic effects of this high capsaicin concentration which permeablized the cell membrane allowing calcium to flow freely […] the cell. This was not reversed by capsazepine. […] These finding confirm that activation of TRPV1 is not the mechanism by which cell death is induced using capsazepine.
# [3] = tested on: HSC3 xenografts; assay: OSCC mouse xenograft model, HSC3; format: in vivo, athymic nude (nu/nu) mice; settings: 40 μg CPZ intra-tumoral every other day
# Source text: (§1) Animals. Six week-old female athymic nude (nu/nu) mice were purchased from HARLAN Laboratories (Indianapolis, Ind.) and used in a laminar air-flow cabinet under pathogen-free conditions. They were provided with a 12-h light/dark schedule at controlled temperature and humidity with food and water ad libitum. Mice were allowed to acclimate for at least one week prior to the start of the experiments. All procedures were approved by the UTHSCSA (University of Texas Health Science Center—San Antonio) Institutional Animal Care and Use Committee.
# OSCC Mouse Xenograft Model. Mice were injected subcutaneously in the right flank with 2×10^6 HSC3, SCC4, or SCC25 cells in 0.1 ml of sterile phosphate buffered saline (each of these cell lines is published in scientific literature). Four weeks post-inoculation, tumors had grown to an average volume of 110 mm^3. Mice were then divided into two experimental groups of five animals each, which received the following treatments as intra-tumoral injections: group A, vehicle control (7% DMSO in sterile saline); group B, CPZ treatment (40 μg). The injections were repeated every other day and for a total of at least 14 days.
# Treatments. […] Mice were monitored daily for tumor growth, cachexia, and weight loss. Tumor volumes and body weight were recorded every other day. Tumor volumes were calculated by the formula: (4π/3)×(w/2)2×(l/2), where w=width and l=length. […]
# [4] = tested on: SCC25 xenografts; assay: OSCC mouse xenograft model, SCC25; format: in vivo, athymic nude (nu/nu) mice
# Source text: as §1
# OSCC Mouse Xenograft Model. Mice were injected subcutaneously in the right flank with 2×10^6 HSC3, SCC4, or SCC25 cells in 0.1 ml of sterile phosphate buffered saline (each of these cell lines is published in scientific literature). Four weeks post-inoculation, tumors had grown to an average volume of 110 mm^3. […] The injections were repeated every other day and for a total of at least 14 days.
# Treatments. CPZ (5 mg) was diluted in 250 μl of 100% DMSO to yield a final concentration of 20 μg/μl of stock solution. Stock solution (100 m) was subsequently diluted in 7% DMSO in sterile saline generating a final concentration of 1 μg/μl. […] Control xenografts were injected intra-tumorally with 40 μl of vehicle control (7% DMSO). Mice were monitored daily for tumor growth, cachexia, and weight loss. Tumor volumes and body weight were recorded every other day. Tumor volumes were calculated by the formula: (4π/3)×(w/2)2×(l/2), where w=width and l=length. Measurements were made using a digital caliper. At the conclusion of the experiments, mice were anaesthetized with isoflurane and cervical dislocation, blood was collected, and the serum was separated and stored at −80° C. until assayed. Biochemical analysis of serum was performed by the Mouse Metabolic Phenotyping Center (Yale School of Medicine, New Haven, Conn.). Tumors were dissected and placed in 10% neutral buffered formalin (SIGMA, St. Louis, Mo.) and processed for histological analysis.
# [5] = tested on: OSCC cell lines (HSC3, SCC4, and SCC25)
# Experimental: Cell viability assays reported as % of vehicle control (n=3). […] VEH=delivery vehicle control without CAP or CPZ. *p<0.05, ***p<0.001.
# FIG. 1H-1: Cell viability assays of OSCC cell lines treated with 30 μM CPZ alone or in combination with 10 mM N-Acetyl-L-Cysteine (NAC) for 24 h (n=4); ***p<0.001.
# Human OSCC Cell Lines. The human OSCC cell lines MDA231, PS3, SCC4 and SCC25 were obtained from ATCC (American Type Culture Collection, Rockville, Md.). The HSC3 cell line was obtained from the Japanese Cell Resource Bank (Osaka, Japan). […] Cells were maintained in DMEM (GIBCO, Carlsbad, Calif.) supplemented with 10% FBS at 37° C. in 5% CO2. Both cell lines were derived from primary OSCC tumors from the tongues of male patients in their fifth generation of life. Data regarding pertinent medical history, treatment, outcome of care and recurrence were not available.
# Statistical Analysis. Statistical analyses were performed using GraphPad Prism4 (San Diego, Calif.). Experiments were performed in triplicate and results are represented as means+SD except when indicated. […] Cytotoxicity assays of cell viability were analyzed by one-way ANOVA and Bonferroni's post-hoc test (n=3).
# [6] = tested on: nicotinic acetylcholine receptors; settings: cited from earlier work
# [7] = tested on: CFA-induced mechanical hyperalgesia; settings: guinea pigs; cited from earlier work
# [8] = rat model, high intravenous administration dose; cited from earlier work
smiles,measurement,setting,value
"Oc1cc2c(cc1O)CN(C(=S)NCCc1ccc(Cl)cc1)CCC2 [CPZ, 2-[2-(4-chlorphenyl)ethylamino-thiocarbonyl]-7,8-dihydroxy-2,3,4,5-tetrahydro-1H-2-benzazepine]",reduction in cell proliferation,[1],15%
same,intra-cellular calcium levels,[2],had no effect on intra-cellular calcium levels
same,healing of xenografts,[3],complete healing in some treated HSC3 xenografts
same,tumor volume,"[3]; two weeks, p<0.05",significant reduction in tumor volume
same,decrease in tumor volume,"[4]; 20 μg CPZ (1 μg/μl) injections over two weeks, FIG. 13",57.5%
same,healing of xenografts,[4]; 20 μg CPZ intra-tumoral every other day,Nearly complete healing
same,tumor volume,"[4]; 20 μg CPZ intra-tumoral every other day, two weeks, p<0.05",significant reduction in tumor volume
same,cytotoxicity,[5],significant dose dependent cytotoxicity
same,effect on nicotinic acetylcholine receptors,[6],Inhibitis
same,CFA-induced mechanical hyperalgesia,[7],Significantly reversed
same,hyperthermia,[8],does not cause hyperthermia
